Legend:
human orexin receptor 1 = human orexin receptor 1 (Homo sapiens (Human), UniProt O43613); test: Orexin antagonist activity, intracellular calcium FLIPR assay, RBL-2H3 cells expressing human orexin receptor 1; format: cell-based; details: RBL-2H3 cells stably expressing human orexin receptor 1; orexin-A at approx. 80% maximal response; compound added 15 minutes before; read-out: Human Orexin1R IC50
human orexin receptor 2 = human orexin receptor 2 (Homo sapiens (Human), UniProt O43614); test: Orexin antagonist activity, intracellular calcium FLIPR assay, RBL-2H3 cells expressing human orexin receptor 2; format: cell-based; details: RBL-2H3 cells stably expressing human orexin receptor 2; orexin-A at approx. 80% maximal response; compound added 15 minutes before; read-out: Human Orexin2R IC50
human orexin receptor 2, sequence (O43614 whole entry): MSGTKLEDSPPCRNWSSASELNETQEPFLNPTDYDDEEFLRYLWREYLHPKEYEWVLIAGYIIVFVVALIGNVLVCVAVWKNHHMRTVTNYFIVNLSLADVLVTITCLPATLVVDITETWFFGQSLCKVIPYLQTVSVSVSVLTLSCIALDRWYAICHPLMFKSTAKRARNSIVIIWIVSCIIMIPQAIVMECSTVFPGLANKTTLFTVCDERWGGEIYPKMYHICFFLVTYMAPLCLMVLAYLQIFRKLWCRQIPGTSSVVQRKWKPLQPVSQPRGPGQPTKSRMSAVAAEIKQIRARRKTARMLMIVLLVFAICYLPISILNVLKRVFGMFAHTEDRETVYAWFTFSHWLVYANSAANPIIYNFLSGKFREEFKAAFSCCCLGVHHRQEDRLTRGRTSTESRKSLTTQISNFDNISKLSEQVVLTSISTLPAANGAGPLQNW

human orexin receptor 1, sequence (O43613 whole entry): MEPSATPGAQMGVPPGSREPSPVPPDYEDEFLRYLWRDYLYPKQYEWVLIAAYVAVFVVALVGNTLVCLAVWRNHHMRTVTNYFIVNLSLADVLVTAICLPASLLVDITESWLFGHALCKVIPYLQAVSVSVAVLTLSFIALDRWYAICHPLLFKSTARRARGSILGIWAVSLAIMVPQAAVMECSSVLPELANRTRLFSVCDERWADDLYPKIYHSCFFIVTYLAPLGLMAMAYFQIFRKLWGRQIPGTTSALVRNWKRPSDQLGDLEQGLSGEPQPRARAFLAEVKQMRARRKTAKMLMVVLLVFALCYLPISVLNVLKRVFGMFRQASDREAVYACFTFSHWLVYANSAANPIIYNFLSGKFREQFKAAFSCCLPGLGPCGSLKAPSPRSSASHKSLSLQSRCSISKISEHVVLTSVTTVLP

| IC50 (human orexin receptor 1) | IC50 (human orexin receptor 2) | SMILES |
| --- | --- | --- |
| 792 nM | 3800 nM | O=C(NC1CCCC1Cc1cc(C(F)(F)F)ccn1)c1ccccc1-n1nccn1 (single isomer, unassigned) [Example 23, 2-(2H-1,2,3-Triazol-2-yl)-N-(2-{[4-(trifluoromethyl)pyridin-2-yl]methyl}cyclopentyl)benzamide] |
| 472 nM | > 10000 nM | O=C(NC1CCCC1Cc1ccc(C(F)(F)F)cn1)c1ccccc1-n1nccn1 (single isomer, unassigned) [Example 25, 2-(2H-1,2,3-Triazol-2-yl)-N-(2-{[5-(trifluoromethyl)pyridin-2-yl]methyl}cyclopentyl)benzamide] |
| 28 nM | > 10000 nM | CC1(Nc2ncc(C(F)(F)F)cn2)CCCC1NC(=O)c1ccccc1-n1nccn1 (single isomer, unassigned) [Example 94, N-(2-Methyl-2-{[5-(trifluoromethyl)pyrimidin-2-yl]amino}cyclopentyl)-2-(2H-1,2,3-triazol-2-yl)benzamide] |
| 68 nM | > 10000 nM | O=C(NC1CC(F)(F)CC1Nc1ncc(C(F)(F)F)cn1)c1ccccc1-n1nccn1 (single isomer, unassigned) [Example 127, N-(4,4-Difluoro-2-{[5-(trifluoromethyl)pyrimidin-2-yl]amino}cyclopentyl)-2-(2H-1,2,3-triazol-2-yl)benzamide] |
| 33 nM | > 10000 nM | O=C(NC1CC(F)(F)CC1Nc1ccc(C(F)(F)F)cn1)c1ccccc1-n1nccn1 (single isomer, unassigned) [Example 128, N-(4,4-Difluoro-2-{[5-(trifluoromethyl)pyridin-2-yl]amino}cyclopentyl)-2-(2H-1,2,3-triazol-2-yl)benzamide] |
| 633 nM | 8750 nM | O=C(NC1CC(F)(F)CC1Nc1ccc(C(F)(F)F)cn1)c1ccccc1-n1nccn1 (single isomer, unassigned) [Example 129, N-(4,4-Difluoro-2-{[5-(trifluoromethyl)pyridin-2-yl]amino}cyclopentyl)-2-(2H-1,2,3-triazol-2-yl)benzamide] |
| 77 nM |  | O=C(NC1CC(F)(F)CC1Nc1cnc(C(F)(F)F)cn1)c1ccccc1-n1nccn1 (single isomer, unassigned) [Example 130, N-(4,4-Difluoro-2-{[5-(trifluoromethyl)pyrazin-2-yl]amino}cyclopentyl)-2-(2H-1,2,3-triazol-2-yl)benzamide] |
| 240 nM | > 10000 nM | COc1cccc(OC)c1C(=O)N[C@H]1CCC[C@@H]1Nc1ccc(C(F)(F)F)cn1 [Example 1, 2,6-Dimethoxy-N-[(1S,2S)-2-{[5-(trifluoromethyl)pyridin-2-yl]amino}cyclopentyl]benzamide] |
| 870 nM | > 10000 nM | COc1cccc(OC)c1C(=O)N[C@H]1CCC[C@@H]1Nc1ncc(C(F)(F)F)cn1 [Example 2, 2,6-Dimethoxy-N-[(1S,2S)-2-{[5-(trifluoromethyl)pyrimidin-2-yl]amino}cyclopentyl]benzamide] |
| 58 nM | > 10000 nM | Cc1ccc(-n2nccn2)c(C(=O)N[C@H]2CCC[C@@H]2Nc2ncc(C(F)(F)F)cn2)c1 [Example 3, 5-Methyl-2-(2H-1,2,3-triazol-2-yl)-N-[(1S,2S)-2-{[5-(trifluoromethyl)pyrimidin-2-yl]amino}cyclopentyl]benzamide] |
| 520 nM | > 10000 nM | CCc1cnc(N[C@H]2CCC[C@@H]2NC(=O)c2cc(C)ccc2-n2nccn2)nc1 [Example 4, N-[(1S,2S)-2-[(5-Ethylpyrimidin-2-yl)amino]cyclopentyl]-5-methyl-2-(2H-1,2,3-triazol-2-yl)benzamide] |
| 51 nM | > 10000 nM | Cc1ccc(-n2nccn2)c(C(=O)N[C@H]2CCC[C@@H]2Nc2ccc(C(F)(F)F)cn2)c1 [Example 6, 5-Methyl-2-(2H-1,2,3-triazol-2-yl)-N-[(1S,2S)-2-{[5-(trifluoromethyl)pyridin-2-yl]amino}cyclopentyl]benzamide] |
| 51 nM | > 10000 nM | Cc1ccc(-n2nccn2)c(C(=O)N[C@H]2CCC[C@@H]2Nc2cnc(C(F)(F)F)cn2)c1 [Example 7, 5-Methyl-2-(2H-1,2,3-triazol-2-yl)-N-[(1S,2S)-2-{[5-(trifluoromethyl)pyrazin-2-yl]amino}cyclopentyl]benzamide] |
| 110 nM | > 10000 nM | Cc1noc(-c2ccccc2C(=O)N[C@H]2CCC[C@@H]2Nc2ccc(C(F)(F)F)cn2)n1 [Example 8, 2-(3-Methyl-1,2,4-oxadiazol-5-yl)-N-[(1S,2S)-2-{[5-(trifluoromethyl)pyridin-2-yl]amino}cyclopentyl]benzamide] |
| 340 nM | > 10000 nM | Cc1ccc(-n2nccn2)c(C(=O)N[C@H]2CCC[C@@H]2Nc2cnc(Cl)cn2)c1 [Example 9, N-[(1S,2S)-2-[(5-Chloropyrazin-2-yl)amino]cyclopentyl]-5-methyl-2-(2H-1,2,3-triazol-2-yl)benzamide] |
| 59 nM | > 10000 nM | O=C(N[C@H]1CCC[C@@H]1Nc1ccc(C(F)(F)F)cn1)c1cc(F)ccc1-n1nccn1 [Example 10, 5-Fluoro-2-(2H-1,2,3-triazol-2-yl)-N-[(1S,2S)-2-{[5-(trifluoromethyl)pyridin-2-yl]amino}cyclopentyl]benzamide] |

| IC50 (human orexin receptor 1) | IC50 (human orexin receptor 2) | SMILES |
| --- | --- | --- |
| 170 nM | > 10000 nM | O=C(N[C@H]1CCC[C@@H]1Nc1ccc(C(F)(F)F)cn1)c1ccccc1-n1cccn1 [Example 11, 2-(1H-Pyrazol-1-yl)-N-[(1S,2S)-2-{[5-(trifluoromethyl)pyridin-2-yl]amino}cyclopentyl]benzamide] |
| 65 nM | > 10000 nM | O=C(N[C@H]1CCC[C@@H]1Nc1ccc(C(F)(F)F)cn1)c1ccccc1-n1nccn1 [Example 12, 2-(2H-1,2,3-Triazol-2-yl)-N-[(1S,2S)-2-{[5-(trifluoromethyl)pyridin-2-yl]amino}cyclopentyl]benzamide] |
| 99 nM | > 10000 nM | O=C(N[C@H]1CCC[C@@H]1Nc1ccc(C(F)(F)F)cn1)c1ccccc1-c1ncccn1 [Example 13, 2-(Pyrimidin-2-yl)-N-[(1S,2S)-2-{[5-(trifluoromethyl)pyridin-2-yl]amino}cyclopentyl]benzamide] |
| 89 nM | > 10000 nM | O=C(N[C@H]1CCC[C@@H]1Nc1ccc(C(F)(F)F)cn1)c1cc(F)ccc1-c1ncccn1 [Example 14, 5-Fluoro-2-(pyrimidin-2-yl)-N-[(1S,2S)-2-{[5-(trifluoromethyl)pyridin-2-yl]amino}cyclopentyl]benzamide] |
| 49 nM | > 10000 nM | Cc1noc(-c2ccccc2C(=O)N[C@H]2CCC[C@@H]2Nc2cnc(C(F)(F)F)cn2)n1 [Example 15, 2-(3-Methyl-1,2,4-oxadiazol-5-yl)-N-[(1S,2S)-2-{[5-(trifluoromethyl)pyrazin-2-yl]amino}cyclopentyl]benzamide] |
| 54 nM | > 10000 nM | Cc1noc(-c2ccccc2C(=O)N[C@H]2CCC[C@@H]2Nc2ncc(C(F)(F)F)cn2)n1 [Example 16, 2-(3-Methyl-1,2,4-oxadiazol-5-yl)-N-[(1S,2S)-2-{[5-(trifluoromethyl)pyrimidin-2-yl]amino}cyclopentyl]benzamide] |
| 53 nM | > 10000 nM | O=C(N[C@H]1CCC[C@@H]1Nc1cnc(C(F)(F)F)cn1)c1ccccc1-n1nccn1 [Example 17, 2-(2H-1,2,3-Triazol-2-yl)-N-[(1S,2S)-2-{[5-(trifluoromethyl)pyrazin-2-yl]amino}cyclopentyl]benzamide] |
| 57 nM | > 10000 nM | O=C(N[C@H]1CCC[C@@H]1Nc1ncc(C(F)(F)F)cn1)c1ccccc1-n1nccn1 [Example 18, 2-(2H-1,2,3-Triazol-2-yl)-N-[(1S,2S)-2-{[5-(trifluoromethyl)pyrimidin-2-yl]amino}cyclopentyl]benzamide] |
| 757 nM | 6100 nM | O=C(N[C@H]1CCC[C@H]1Oc1cnc(C(F)(F)F)cn1)c1ccccc1-n1nccn1 [Example 19, 2-(2H-1,2,3-Triazol-2-yl)-N-[(1S,2R)-2-{[5-(trifluoromethyl)pyrazin-2-yl]oxy}cyclopentyl]benzamide] |
| 875 nM | > 10000 nM | O=C(N[C@H]1CCC[C@@H]1Oc1cc(C(F)(F)F)ccn1)c1ccccc1-n1nccn1 [Example 20, 2-(2H-1,2,3-Triazol-2-yl)-N-[(1S,2S)-2-{[4-(trifluoromethyl)pyridin-2-yl]oxy}cyclopentyl]benzamide] |
| 576 nM | 6420 nM | COc1cccc(OC)c1C(=O)N[C@H]1CCC[C@@H]1Oc1cc(C(F)(F)F)ccn1 [Example 21, 2,6-Dimethoxy-N-[(1S,2S)-2-{[4-(trifluoromethyl)pyridin-2-yl]oxy}cyclopentyl]benzamide] |
| 665 nM | 6160 nM | O=C(NC1CCCC1Cc1cc(C(F)(F)F)ccn1)c1ccccc1-n1nccn1 (stereo not shown) [Example 22, 2-(2H-1,2,3-Triazol-2-yl)-N-(2-{[4-(trifluoromethyl)pyridin-2-yl]methyl}cyclopentyl)benzamide] |
| 766 nM | > 10000 nM | O=C(NC1CCCC1Cc1ccc(C(F)(F)F)cn1)c1ccccc1-n1nccn1 (stereo not shown) [Example 24, 2-(2H-1,2,3-Triazol-2-yl)-N-(2-{[5-(trifluoromethyl)pyridin-2-yl]methyl}cyclopentyl)benzamide] |
| 622 nM | > 10000 nM | Cc1ccc(-n2nccn2)c(C(=O)NC2CCCC2Cc2ccc(C(F)(F)F)cn2)c1 (stereo not shown) [Example 26, 5-Methyl-2-(2H-1,2,3-triazol-2-yl)-N-(2-{[5-(trifluoromethyl)pyridin-2-yl]methyl}cyclopentyl)benzamide] |
| 726 nM | 2000 nM | COc1cccc(OC)c1C(=O)N[C@H]1CCC[C@@H]1Nc1cccc(C(F)(F)F)n1 [Example 27, 2,6-Dimethoxy-N-[(1S,2S)-2-{[6-(trifluoromethyl)pyridin-2-yl]amino}cyclopentyl]benzamide] |
